Test results published in article PMC4775997, “Imidazopyridazine Inhibitors of Plasmodium falciparum Calcium-Dependent Protein Kinase 1 Also Target Cyclic GMP-Dependent Protein Kinase and Heat Shock Protein 90 To Kill the Parasite at Different Stages of Intracellular Development” (Antimicrobial Agents and Chemotherapy, 2016).
Where two headings read alike, the source gives them in different places.

Tests used:
P. falciparum 3D7 [1] = experiment: SYBR green I growth assay, wild-type parasites; format: cell-based, Plasmodium falciparum; settings: for EC5048/EC5096 ratio: Table 1
CDPK1 = CDPK1 (Plasmodium falciparum, UniProt P62344); experiment: biochemical; format: biochemical; settings: read-out: Enzyme inhibition IC50, CDPK1
PfPKG = target: T1, PfPKG (Plasmodium falciparum, UniProt Q8I719); experiment: Microfluidic fluorescent shift assay of cGMP-dependent protein kinase activity; format: biochemical; settings: read-out: Enzyme inhibition IC50, PKG
T1 construct: plasmids (pTrcHisC) encoding full-length PfPKG and PfPKG T618Q with N-terminal His tags; His tag (N); made in house; host or cells: E. coli Rosetta2(DE3)

PfPKG T618Q = target: T2, PfPKG T618Q (Plasmodium falciparum, UniProt Q8I719, T618Q); experiment: biochemical; format: biochemical; settings: for IC50: read-out: Enzyme inhibition IC50, PKG T618Q
T2 construct: plasmids (pTrcHisC) encoding full-length PfPKG and PfPKG T618Q with N-terminal His tags; His tag (N); made in house; host or cells: E. coli Rosetta2(DE3)

3D7 PKG T618Q = experiment: microbe, parasite or virus in culture; format: cell-based, Plasmodium falciparum; settings: for 3D7 PKG T618Q/3D7 EC50 ratio / EC50: Table 2; for EC50: SYBR green I, 96 h, single experiment, or mean (SD) of duplicate assays, read-out: Parasite inhibition EC50, 3D7 PKG T618Q; for Ratio 3D7 PKG T618Q/3D7: Table S2
P. falciparum 3D7 [2] = experiment: Microscopic examination of Giemsa-stained smears (stage of action); settings: for Stage of action (before or after DNA synthesis): Table S1, ring-stage parasites, 10x EC50 for 48 h; for Stage of action: ring stage parasites treated with 10 times the 96-h EC50 for 48 h
PfHSP90 = PfHSP90 (Plasmodium falciparum, UniProt Q8IC05); experiment: Tryptophan fluorescence binding, full-length PfHSP90; settings: tryptophan fluorescence 346 nm; [SE] of triplicate measurements; read-out: Kd, full-length PfHSP90
Description: (§1) The PCR product was cloned into pRSET-A (Life Technologies) between the BamHI and XhoI sites. Positive clones were confirmed by restriction digestion and sequencing. The clone was transformed into Escherichia coli Rosetta(pLysS) cells, and protein was expressed by induction with 0.1 mM isopropyl β-D-1-thiogalactopyranoside (IPTG) at 37°C for 2 h. PfHSP90 proteins were purified using Ni-nitrilotriacetic acid (NTA) affinity chromatography (Qiagen) as described in the manufacturer's protocol.
Tryptophan fluorescence analysis was performed using a PerkinElmer LS55 luminescence spectrometer. […] The binding buffer used for the reaction contained 50 mM Tris-HCl, pH 7.4, and 1 mM EDTA. Samples were excited at 280 nm, and tryptophan fluorescence measurements were carried out by scanning the emission spectrum in the wavelength range 300 to 400 nm. A maximum wavelength (λmax) of 346 nm was selected for all the calculations. The slit widths of excitation and emission were set at 2.5 and 5 nm, respectively. The difference in fluorescence intensity between protein alone and protein with various concentrations of 17-AAG or compound D was calculated and plotted against the different concentrations of the respective ligand used. The resultant hyperbolic curve was analyzed with GraphPad Prism software, using nonlinear regression analysis with single-site-specific binding as described previously ([32]).

PfHSP90-NTD = PfHSP90-NTD (Plasmodium falciparum, UniProt Q8IC05); experiment: Tryptophan fluorescence binding, PfHSP90 N-terminal domain; settings: tryptophan fluorescence 346 nm; [SE] of triplicate measurements; read-out: Kd, PfHSP90-NTD
Description: PfCDPK1 and PfCDPK1 T145G proteins were produced using methods described elsewhere ([23]). The PfHSP90 N-terminal domain (NTD) comprises the first 223 amino acids of PfHSP90. This region was amplified from the full-length PfHSP90-pRSET-A construct ([32]) using the following primers: primer 7, […]; primer 8, […].
as §1, with “PfHSP90 proteins were purified using Ni-nitrilotriacetic acid (NTA) affinity chromatography (Qiagen) as described in the manufacturer's protocol.” left out
Tryptophan fluorescence analysis was performed using a PerkinElmer LS55 luminescence spectrometer. […] Samples were excited at 280 nm, and tryptophan fluorescence measurements were carried out by scanning the emission spectrum in the wavelength range 300 to 400 nm. […] The difference in fluorescence intensity between protein alone and protein with various concentrations of 17-AAG or compound D was calculated and plotted against the different concentrations of the respective ligand used. The resultant hyperbolic curve was analyzed with GraphPad Prism software, using nonlinear regression analysis with single-site-specific binding as described previously ([32]).

[3] = SYBR green I, 48 h incubation, mean of three independent experiments (SD), read-out: EC50 after treatment for 48 h
[4] = SYBR green I, 96 h incubation, mean of three independent experiments (SD), read-out: EC50 after treatment for 96 h
[5] = Table 2, SYBR green I, 96 h, single experiment, or mean (SD) of duplicate assays, read-out: Parasite inhibition EC50, 3D7
[6] = Table S1, single experiment with duplicate samples, or mean of triplicate experiments (SD), read-out: EC50 48 hours

Sequence of CDPK1 (P62344 whole entry): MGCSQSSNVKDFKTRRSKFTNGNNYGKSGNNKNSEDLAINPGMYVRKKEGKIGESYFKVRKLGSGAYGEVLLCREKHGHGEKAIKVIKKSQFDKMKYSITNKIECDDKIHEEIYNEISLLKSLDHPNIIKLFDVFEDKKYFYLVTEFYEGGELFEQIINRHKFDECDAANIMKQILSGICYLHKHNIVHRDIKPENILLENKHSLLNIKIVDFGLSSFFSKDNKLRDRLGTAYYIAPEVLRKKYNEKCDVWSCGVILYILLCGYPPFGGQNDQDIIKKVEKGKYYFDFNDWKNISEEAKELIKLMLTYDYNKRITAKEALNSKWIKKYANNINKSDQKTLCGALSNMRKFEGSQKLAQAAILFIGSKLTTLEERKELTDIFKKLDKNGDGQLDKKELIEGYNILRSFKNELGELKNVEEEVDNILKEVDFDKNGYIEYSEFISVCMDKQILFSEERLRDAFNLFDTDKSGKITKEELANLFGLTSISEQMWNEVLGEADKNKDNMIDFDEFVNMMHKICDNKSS
T2 sequence (Q8I719 whole entry T618Q): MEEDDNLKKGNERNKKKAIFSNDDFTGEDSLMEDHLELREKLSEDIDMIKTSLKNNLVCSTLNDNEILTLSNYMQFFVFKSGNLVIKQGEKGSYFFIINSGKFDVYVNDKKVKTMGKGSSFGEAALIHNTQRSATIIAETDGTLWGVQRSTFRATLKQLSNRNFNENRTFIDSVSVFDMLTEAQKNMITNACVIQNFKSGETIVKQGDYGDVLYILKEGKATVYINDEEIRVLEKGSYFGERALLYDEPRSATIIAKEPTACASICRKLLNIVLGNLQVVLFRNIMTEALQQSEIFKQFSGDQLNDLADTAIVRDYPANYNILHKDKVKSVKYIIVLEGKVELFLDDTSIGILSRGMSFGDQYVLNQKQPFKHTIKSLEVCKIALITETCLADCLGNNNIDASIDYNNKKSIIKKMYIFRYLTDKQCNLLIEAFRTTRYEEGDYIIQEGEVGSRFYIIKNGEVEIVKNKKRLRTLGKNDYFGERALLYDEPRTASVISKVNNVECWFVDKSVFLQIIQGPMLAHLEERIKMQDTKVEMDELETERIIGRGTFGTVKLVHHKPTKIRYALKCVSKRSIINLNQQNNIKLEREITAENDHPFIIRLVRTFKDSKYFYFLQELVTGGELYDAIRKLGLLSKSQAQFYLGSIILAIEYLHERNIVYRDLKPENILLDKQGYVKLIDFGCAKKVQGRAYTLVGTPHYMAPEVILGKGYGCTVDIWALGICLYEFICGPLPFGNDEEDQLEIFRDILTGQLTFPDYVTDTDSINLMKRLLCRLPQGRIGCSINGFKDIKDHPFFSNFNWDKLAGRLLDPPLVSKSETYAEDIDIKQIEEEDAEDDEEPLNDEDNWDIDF
Sequence of PfHSP90-NTD (Q8IC05 entry or part of it): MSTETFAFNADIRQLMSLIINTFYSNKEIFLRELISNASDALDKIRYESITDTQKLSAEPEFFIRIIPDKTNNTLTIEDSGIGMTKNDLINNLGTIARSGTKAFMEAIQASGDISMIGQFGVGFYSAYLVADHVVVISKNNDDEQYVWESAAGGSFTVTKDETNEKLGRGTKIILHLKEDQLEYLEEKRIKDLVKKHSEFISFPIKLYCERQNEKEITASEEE
Sequence of PfHSP90 (Q8IC05 entry or part of it): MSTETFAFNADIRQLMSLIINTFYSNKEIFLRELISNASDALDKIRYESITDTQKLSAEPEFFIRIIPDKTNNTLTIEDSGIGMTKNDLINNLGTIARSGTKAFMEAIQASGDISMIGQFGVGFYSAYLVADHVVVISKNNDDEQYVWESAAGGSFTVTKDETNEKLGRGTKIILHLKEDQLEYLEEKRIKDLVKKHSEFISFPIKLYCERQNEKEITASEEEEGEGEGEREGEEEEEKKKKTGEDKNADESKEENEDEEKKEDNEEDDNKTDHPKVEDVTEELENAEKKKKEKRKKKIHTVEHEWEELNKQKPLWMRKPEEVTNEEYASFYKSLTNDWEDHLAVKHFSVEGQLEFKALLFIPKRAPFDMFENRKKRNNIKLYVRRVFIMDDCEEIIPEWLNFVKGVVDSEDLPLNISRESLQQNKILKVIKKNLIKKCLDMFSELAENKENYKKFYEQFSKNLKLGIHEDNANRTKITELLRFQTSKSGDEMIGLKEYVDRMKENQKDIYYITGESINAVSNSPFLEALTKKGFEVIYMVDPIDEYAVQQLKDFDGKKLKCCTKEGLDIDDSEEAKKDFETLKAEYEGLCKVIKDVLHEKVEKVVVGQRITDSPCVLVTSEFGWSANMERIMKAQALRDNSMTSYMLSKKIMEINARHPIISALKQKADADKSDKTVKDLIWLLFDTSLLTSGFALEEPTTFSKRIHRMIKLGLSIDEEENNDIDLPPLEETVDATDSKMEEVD

Row | SMILES | EC50 (P. falciparum 3D7 [1]; [3]) | EC50 (P. falciparum 3D7 [1]; [4]) | EC5048/EC5096 ratio (P. falciparum 3D7 [1]) | EC50 (P. falciparum 3D7 [1]; [5]) | ratio EC5048:EC5096 (P. falciparum 3D7 [1]; Table S1) | EC50 (P. falciparum 3D7 [1]; [6]) | IC50 (CDPK1; Table 2) | IC50 (PfPKG) | IC50 (PfPKG T618Q; Table 2, ATP at Km 90 μM) | 3D7 PKG T618Q/3D7 EC50 ratio (3D7 PKG T618Q) | EC50 (3D7 PKG T618Q) | Ratio 3D7 PKG T618Q/3D7 (3D7 PKG T618Q) | Stage of action (before or after DNA synthesis) (P. falciparum 3D7 [2]) | Stage of action (P. falciparum 3D7 [2]) | Selectivity PKG T618Q/PKG (PfPKG T618Q; Table S2) | also measured
1 | CC(C)CCNc1ccc(-c2cnc3ccc(NC4CCN(C)C4)nn23)cn1 (stereo not drawn) [Compound 22] | 0.546 µM | 0.3 µM | 1.8 | 0.215 µM | 1.8 | 0.55 µM | 0.074 µM | > 1 µM | 37.5 µM | 1.4 | 0.303 µM | 1 | trophozoite (before) | Trophozoite | – | Selectivity (PKG T618Q/PKG IC50 ratio) (PfPKG T618Q; Table 2): <38
2 | CN1CCC(CNc2ccc3ncc(-c4cnc(Nc5ncccc5F)nc4)n3n2)CC1 [Compound 38] | > 1000 µM | 0.05 µM | >1,000 | 0.073 µM | – | – | 0.008 µM | 0.004 µM | 43.5 µM | 11.8 | 0.859 µM | 12 | late schizont | Late schizont | 12187 | –
3 | CC(C)CCNc1ncc(-c2cnc3ccc(NC4CCN(C)C4)nn23)cn1 (stereo not drawn) [Compound 31] | 1.66 µM | 0.238 µM | 7.0 | – | 7.0 | 1.66 µM | – | – | – | – | – | – | late schizont | Late schizont | 21 | EC50 (P. falciparum 3D7 [1]; Table S1, single experiment with duplicate samples, or mean of triplicate experiments (SD), read-out: EC50 96 hours): 0.24 µM; IC50 (CDPK1; Table S2): 0.093 µM; IC50 (PfPKG; Table S2): 0.287 µM; IC50 (PfPKG T618Q; Table S2): 5.95 µM
4 | C=CCNC1=C2C[C@@H](C)C[C@H](OC)[C@H](O)[C@@H](C)/C=C(\C)[C@H](OC(N)=O)[C@@H](OC)/C=C\C=C(/C)C(=O)NC(=CC1=O)C2=O [Compound 17-AAG, 17-N-allylamino-17-demethoxygeldanamycin, reference compound] | – | – | – | – | – | – | – | – | – | – | – | – | – | – | – | Kd (PfHSP90): 8.7 µM; Kd (PfHSP90-NTD): 15.8 µM
